# Reference: ChEMBL document CHEMBL4507292 (2021)
# Columns and labels:
# [1] = target: GABA-A receptor; anion channel (Rattus norvegicus) (UniProt O09028+P15431+P18506+P18508+P19969+P20236+P23574+P23576+P28471+P28473+P30191+P62813+P63079+P63138+Q91ZM7+Q9ES14); conditions: Compound concentration 10.0 uM
# [2] = target: Mitogen-activated protein kinase kinase kinase 19 (Homo sapiens) (UniProt Q56UN5); conditions: Compound concentration 1000.0 nM
# [3] = target: Cyclin-dependent kinase 7 (Homo sapiens) (UniProt P50613); conditions: Compound concentration 1000.0 nM
# [4] = target: Ephrin type-B receptor 2 (Homo sapiens) (UniProt P29323); conditions: Compound concentration 1000.0 nM
# [5] = target: Protein kinase C eta type (Homo sapiens) (UniProt P24723); conditions: Compound concentration 1000.0 nM
# Chain of Protein kinase C eta type (Homo sapiens) (P24723 whole entry): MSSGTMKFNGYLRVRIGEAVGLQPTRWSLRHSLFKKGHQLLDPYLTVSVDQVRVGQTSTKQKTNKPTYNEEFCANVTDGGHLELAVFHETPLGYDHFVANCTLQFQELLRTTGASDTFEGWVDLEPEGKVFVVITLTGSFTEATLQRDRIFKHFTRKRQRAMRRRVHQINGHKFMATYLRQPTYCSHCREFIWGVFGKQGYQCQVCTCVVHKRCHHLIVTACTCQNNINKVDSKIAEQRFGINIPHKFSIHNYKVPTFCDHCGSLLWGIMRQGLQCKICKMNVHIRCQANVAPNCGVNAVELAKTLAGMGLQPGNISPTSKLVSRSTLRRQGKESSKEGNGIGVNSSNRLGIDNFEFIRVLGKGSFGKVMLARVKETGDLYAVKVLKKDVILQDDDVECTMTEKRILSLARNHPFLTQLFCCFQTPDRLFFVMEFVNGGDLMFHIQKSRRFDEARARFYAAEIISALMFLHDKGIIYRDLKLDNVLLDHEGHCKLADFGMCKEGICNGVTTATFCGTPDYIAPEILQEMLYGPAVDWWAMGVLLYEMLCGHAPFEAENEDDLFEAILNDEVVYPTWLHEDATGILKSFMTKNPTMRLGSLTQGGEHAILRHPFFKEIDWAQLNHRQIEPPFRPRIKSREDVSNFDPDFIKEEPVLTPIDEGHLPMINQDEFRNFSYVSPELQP
# [6] = target: Serine/threonine-protein kinase 24 (Homo sapiens) (UniProt Q9Y6E0); conditions: Compound concentration 1000.0 nM
# Chain of Serine/threonine-protein kinase 24 (Homo sapiens) (Q9Y6E0 whole entry, looked up): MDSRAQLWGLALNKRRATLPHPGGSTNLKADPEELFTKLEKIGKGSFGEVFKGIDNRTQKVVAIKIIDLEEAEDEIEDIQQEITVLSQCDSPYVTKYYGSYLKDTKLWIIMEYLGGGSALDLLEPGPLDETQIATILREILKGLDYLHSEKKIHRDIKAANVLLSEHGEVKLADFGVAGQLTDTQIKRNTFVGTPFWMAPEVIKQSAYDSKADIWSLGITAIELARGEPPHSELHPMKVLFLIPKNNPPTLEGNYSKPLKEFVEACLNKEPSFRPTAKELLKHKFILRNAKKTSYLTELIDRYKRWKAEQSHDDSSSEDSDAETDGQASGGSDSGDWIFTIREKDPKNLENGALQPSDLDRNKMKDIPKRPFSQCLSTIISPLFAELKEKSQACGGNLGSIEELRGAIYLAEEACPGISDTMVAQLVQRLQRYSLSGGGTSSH
# [7] = target: Calcium/calmodulin-dependent protein kinase type 1 (Homo sapiens) (UniProt Q14012); conditions: Compound concentration 1000.0 nM
# [8] = target: Vascular endothelial growth factor receptor 3 (Homo sapiens) (UniProt P35916); conditions: Compound concentration 1000.0 nM
# [9] = target: Serine/threonine-protein kinase 32B (Homo sapiens) (UniProt Q9NY57); conditions: Compound concentration 1000.0 nM
# Chain of Serine/threonine-protein kinase 32B (Homo sapiens) (Q9NY57 whole entry): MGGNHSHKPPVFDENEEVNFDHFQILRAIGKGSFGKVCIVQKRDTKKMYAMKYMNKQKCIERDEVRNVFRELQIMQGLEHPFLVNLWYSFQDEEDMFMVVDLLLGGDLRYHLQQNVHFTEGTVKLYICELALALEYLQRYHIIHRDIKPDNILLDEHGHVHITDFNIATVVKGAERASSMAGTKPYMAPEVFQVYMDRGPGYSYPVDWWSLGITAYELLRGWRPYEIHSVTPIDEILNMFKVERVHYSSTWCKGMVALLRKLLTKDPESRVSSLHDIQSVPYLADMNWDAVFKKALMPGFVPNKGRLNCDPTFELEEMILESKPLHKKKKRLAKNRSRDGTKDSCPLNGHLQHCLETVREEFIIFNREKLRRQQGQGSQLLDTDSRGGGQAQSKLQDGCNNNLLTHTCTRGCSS
# [10] = test system: Receptor-type tyrosine-protein kinase FLT3 (Homo sapiens), P36888 [UNDEFINED MUTATION]; conditions: Compound concentration 1000.0 nM
# [11] = target: Dual specificity tyrosine-phosphorylation-regulated kinase 1A (Homo sapiens) (UniProt Q13627); conditions: Compound concentration 1000.0 nM
# [12] = target: Cyclin-dependent kinase 4 (Homo sapiens) (UniProt P11802); conditions: Compound concentration 1000.0 nM
# [13] = target: Ephrin type-A receptor 6 (Homo sapiens) (UniProt Q9UF33); conditions: Compound concentration 1000.0 nM
# [14] = target: Calcium-dependent protein kinase 1 (Plasmodium falciparum) (UniProt P62344); conditions: Compound concentration 1000.0 nM
# Chain of Calcium-dependent protein kinase 1 (Plasmodium falciparum) (P62344 2-524 limits assumed): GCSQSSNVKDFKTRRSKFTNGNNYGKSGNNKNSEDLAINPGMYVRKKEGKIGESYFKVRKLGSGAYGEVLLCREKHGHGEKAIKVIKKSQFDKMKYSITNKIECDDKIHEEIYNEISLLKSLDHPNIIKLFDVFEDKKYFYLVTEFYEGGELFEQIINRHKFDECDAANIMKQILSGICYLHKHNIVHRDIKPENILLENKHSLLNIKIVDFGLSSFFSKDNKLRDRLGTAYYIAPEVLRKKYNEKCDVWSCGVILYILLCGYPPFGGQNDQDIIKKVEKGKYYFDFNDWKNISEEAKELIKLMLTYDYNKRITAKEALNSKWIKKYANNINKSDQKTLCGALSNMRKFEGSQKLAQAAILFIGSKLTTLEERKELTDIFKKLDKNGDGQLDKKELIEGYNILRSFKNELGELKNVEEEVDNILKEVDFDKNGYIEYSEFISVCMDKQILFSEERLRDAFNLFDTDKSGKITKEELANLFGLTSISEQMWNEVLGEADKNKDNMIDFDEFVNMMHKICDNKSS
# [15] = target: Serine/threonine-protein kinase 10 (Homo sapiens) (UniProt O94804); conditions: Compound concentration 1000.0 nM
# [16] = target: Serine/threonine-protein kinase NIM1 (Homo sapiens) (UniProt Q8IY84); conditions: Compound concentration 1000.0 nM
# [17] = target: Dual serine/threonine and tyrosine protein kinase (Homo sapiens) (UniProt Q6XUX3); conditions: Compound concentration 1000.0 nM
# [18] = target: RAC-beta serine/threonine-protein kinase (Homo sapiens) (UniProt P31751); conditions: Compound concentration 1000.0 nM
# Chain of RAC-beta serine/threonine-protein kinase (Homo sapiens) (P31751 whole entry): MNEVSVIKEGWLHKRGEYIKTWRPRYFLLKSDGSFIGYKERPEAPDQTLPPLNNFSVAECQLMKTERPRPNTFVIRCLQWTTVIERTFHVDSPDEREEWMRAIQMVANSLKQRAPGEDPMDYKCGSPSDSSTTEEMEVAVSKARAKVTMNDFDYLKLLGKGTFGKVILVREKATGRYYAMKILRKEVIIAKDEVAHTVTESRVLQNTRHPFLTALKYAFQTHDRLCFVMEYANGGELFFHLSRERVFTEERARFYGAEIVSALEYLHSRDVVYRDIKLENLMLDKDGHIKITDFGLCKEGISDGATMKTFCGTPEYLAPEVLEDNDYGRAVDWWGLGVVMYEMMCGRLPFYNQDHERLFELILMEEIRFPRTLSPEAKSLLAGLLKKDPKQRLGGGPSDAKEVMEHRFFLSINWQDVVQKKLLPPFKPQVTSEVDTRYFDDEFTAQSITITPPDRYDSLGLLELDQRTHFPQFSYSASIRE
# [19] = target: RAC-gamma serine/threonine-protein kinase (Homo sapiens) (UniProt Q9Y243); conditions: Compound concentration 1000.0 nM
# [20] = target: 5-hydroxytryptamine receptor 1B (Homo sapiens) (UniProt P28222); conditions: Compound concentration 10.0 uM
# [21] = target: Aurora kinase A (Homo sapiens) (UniProt O14965); conditions: Compound concentration 1000.0 nM
# [22] = target: Muscarinic acetylcholine receptor M1 (Homo sapiens) (UniProt P11229); conditions: Compound concentration 10.0 uM
# [23] = test system: Phosphatidylinositol 4,5-bisphosphate 3-kinase catalytic subunit alpha isoform (Homo sapiens), P42336 [C420R]; conditions: Compound concentration 1000.0 nM
# [24] = test system: Mast/stem cell growth factor receptor Kit (Homo sapiens), P10721 [V559D]; conditions: Compound concentration 1000.0 nM
# [25] = target: Mitogen-activated protein kinase 4 (Homo sapiens) (UniProt P31152); conditions: Compound concentration 1000.0 nM
# [26] = target: Calcium/calmodulin-dependent protein kinase type II subunit beta (Homo sapiens) (UniProt Q13554); conditions: Compound concentration 1000.0 nM
# [27] = target: Sigma non-opioid intracellular receptor 1 (Homo sapiens, UniProt Q99720); conditions: Compound concentration 10.0 uM
# [28] = target: Receptor-type tyrosine-protein kinase FLT3 (Homo sapiens) (UniProt P36888); conditions: Compound concentration 1000.0 nM
# [29] = target: Phosphatidylinositol 4-kinase beta (Homo sapiens) (UniProt Q9UBF8); conditions: Compound concentration 1000.0 nM
# [30] = target: Serine/threonine-protein kinase NLK (Homo sapiens) (UniProt Q9UBE8); conditions: Compound concentration 1000.0 nM
# Chain of Serine/threonine-protein kinase NLK (Homo sapiens) (Q9UBE8 whole entry): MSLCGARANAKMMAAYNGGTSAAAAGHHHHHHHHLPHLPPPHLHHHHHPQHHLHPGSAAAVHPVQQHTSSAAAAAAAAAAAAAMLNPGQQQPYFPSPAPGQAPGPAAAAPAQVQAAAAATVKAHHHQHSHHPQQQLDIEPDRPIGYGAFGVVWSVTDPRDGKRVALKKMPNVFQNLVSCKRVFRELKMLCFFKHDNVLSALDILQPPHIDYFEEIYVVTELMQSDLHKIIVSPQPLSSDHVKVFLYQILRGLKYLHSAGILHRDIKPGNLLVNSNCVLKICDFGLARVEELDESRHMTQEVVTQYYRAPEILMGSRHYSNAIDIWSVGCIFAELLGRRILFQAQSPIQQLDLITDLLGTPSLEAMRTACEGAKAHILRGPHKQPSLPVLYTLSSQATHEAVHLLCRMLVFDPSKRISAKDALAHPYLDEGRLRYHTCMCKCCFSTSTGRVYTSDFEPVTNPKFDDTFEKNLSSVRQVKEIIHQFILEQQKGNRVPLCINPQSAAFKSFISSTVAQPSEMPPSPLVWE
# [31] = target: Serine/threonine-protein kinase Nek4 (Homo sapiens) (UniProt P51957); conditions: Compound concentration 1000.0 nM
# [32] = target: Macrophage colony-stimulating factor 1 receptor (Homo sapiens) (UniProt P07333); conditions: Compound concentration 1000.0 nM
# [33] = test system: Mast/stem cell growth factor receptor Kit (Homo sapiens), P10721 [V559D,V654A]; conditions: Compound concentration 1000.0 nM
# [34] = target: Bone morphogenetic protein receptor type-1A (Homo sapiens) (UniProt P36894); conditions: Compound concentration 1000.0 nM
# [35] = target: Protein kinase C delta type (Homo sapiens) (UniProt Q05655); conditions: Compound concentration 1000.0 nM
# [36] = target: Tyrosine-protein kinase Mer (Homo sapiens) (UniProt Q12866); conditions: Compound concentration 1000.0 nM
# [37] = target: Cytoplasmic tyrosine-protein kinase BMX (Homo sapiens) (UniProt P51813); conditions: Compound concentration 1000.0 nM
# [38] = target: Inhibitor of nuclear factor kappa-B kinase subunit beta (Homo sapiens) (UniProt O14920); conditions: Compound concentration 1000.0 nM
# [39] = target: Mitogen-activated protein kinase kinase kinase 10 (Homo sapiens) (UniProt Q02779); conditions: Compound concentration 1000.0 nM
# [40] = target: Serine/threonine-protein kinase MARK2 (Homo sapiens) (UniProt Q7KZI7); conditions: Compound concentration 1000.0 nM
# [41] = target: Dual specificity mitogen-activated protein kinase kinase 7 (Homo sapiens) (UniProt O14733); conditions: Compound concentration 1000.0 nM
# Chain of Dual specificity mitogen-activated protein kinase kinase 7 (Homo sapiens) (O14733 whole entry): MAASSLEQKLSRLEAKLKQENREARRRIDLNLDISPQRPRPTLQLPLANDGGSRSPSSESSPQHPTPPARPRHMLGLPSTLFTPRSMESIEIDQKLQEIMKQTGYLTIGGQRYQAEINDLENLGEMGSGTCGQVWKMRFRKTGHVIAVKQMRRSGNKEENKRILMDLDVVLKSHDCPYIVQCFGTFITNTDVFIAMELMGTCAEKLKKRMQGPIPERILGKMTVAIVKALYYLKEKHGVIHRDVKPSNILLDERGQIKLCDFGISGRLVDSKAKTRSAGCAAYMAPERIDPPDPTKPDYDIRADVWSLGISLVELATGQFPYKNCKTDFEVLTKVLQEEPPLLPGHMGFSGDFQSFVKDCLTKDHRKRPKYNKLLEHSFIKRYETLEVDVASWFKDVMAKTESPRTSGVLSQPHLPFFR
# [42] = target: Cyclin-dependent kinase 17 (Homo sapiens) (UniProt Q00537); conditions: Compound concentration 1000.0 nM
# [43] = target: Serine/threonine-protein kinase Sgk1 (Homo sapiens) (UniProt O00141); conditions: Compound concentration 1000.0 nM
# Chain of Mitogen-activated protein kinase kinase kinase 19 (Homo sapiens) (Q56UN5 whole entry): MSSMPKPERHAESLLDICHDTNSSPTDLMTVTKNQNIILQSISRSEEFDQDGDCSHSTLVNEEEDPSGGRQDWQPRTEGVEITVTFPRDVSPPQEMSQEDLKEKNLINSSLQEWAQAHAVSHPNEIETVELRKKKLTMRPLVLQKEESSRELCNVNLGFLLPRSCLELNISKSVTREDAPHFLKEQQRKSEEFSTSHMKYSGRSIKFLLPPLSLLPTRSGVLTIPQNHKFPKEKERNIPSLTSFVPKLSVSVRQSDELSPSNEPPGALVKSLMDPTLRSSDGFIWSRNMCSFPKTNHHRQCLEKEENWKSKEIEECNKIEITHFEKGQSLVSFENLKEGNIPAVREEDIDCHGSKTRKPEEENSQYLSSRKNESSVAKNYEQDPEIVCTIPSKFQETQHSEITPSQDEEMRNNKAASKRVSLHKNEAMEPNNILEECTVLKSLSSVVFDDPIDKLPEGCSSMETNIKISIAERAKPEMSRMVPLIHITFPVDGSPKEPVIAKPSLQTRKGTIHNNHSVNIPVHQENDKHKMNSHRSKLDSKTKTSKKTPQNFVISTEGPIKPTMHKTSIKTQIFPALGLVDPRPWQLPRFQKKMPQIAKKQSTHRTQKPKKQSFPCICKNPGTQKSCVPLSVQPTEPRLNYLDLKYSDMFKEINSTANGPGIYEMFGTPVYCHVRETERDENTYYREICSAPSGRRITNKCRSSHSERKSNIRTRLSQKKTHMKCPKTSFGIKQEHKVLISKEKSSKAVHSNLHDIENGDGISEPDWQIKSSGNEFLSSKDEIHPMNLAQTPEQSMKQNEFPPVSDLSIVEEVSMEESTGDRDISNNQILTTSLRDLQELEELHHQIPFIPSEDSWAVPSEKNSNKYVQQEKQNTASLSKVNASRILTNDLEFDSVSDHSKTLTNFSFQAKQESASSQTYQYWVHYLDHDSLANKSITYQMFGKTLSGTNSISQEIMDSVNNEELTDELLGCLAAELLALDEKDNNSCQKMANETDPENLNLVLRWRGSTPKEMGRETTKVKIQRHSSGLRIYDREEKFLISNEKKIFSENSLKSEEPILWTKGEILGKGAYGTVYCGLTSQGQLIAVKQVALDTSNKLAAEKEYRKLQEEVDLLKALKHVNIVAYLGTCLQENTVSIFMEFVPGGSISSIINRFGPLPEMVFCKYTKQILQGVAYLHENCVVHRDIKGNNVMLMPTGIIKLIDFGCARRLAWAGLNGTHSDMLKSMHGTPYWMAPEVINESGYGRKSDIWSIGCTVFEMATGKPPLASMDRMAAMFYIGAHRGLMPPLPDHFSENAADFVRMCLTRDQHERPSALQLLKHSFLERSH
smiles,measurement,setting,value
Cc1c(C(=O)O)cc(-c2ccc(C3CCNCC3)cc2)c2ccc(-c3ccc(C(F)(F)F)cc3)cc12 [PPTN-NC],inhibition,[1],1.21%
same,residual activity,[2],100%
same,residual activity,[3],97%
same,residual activity,[4],92%
same,residual activity,[5],100%
same,residual activity,[6],100%
same,residual activity,[7],100%
same,residual activity,[8],100%
same,residual activity,[9],100%
same,residual activity,[10],81%
same,residual activity,[11],100%
same,residual activity,[12],100%
same,residual activity,[13],100%
same,residual activity,[14],100%
same,residual activity,[15],100%
same,residual activity,[16],92%
same,residual activity,[17],100%
same,residual activity,[18],100%
same,residual activity,[19],100%
same,inhibition,[20],14.4%
same,residual activity,[21],100%
same,inhibition,[22],7.22%
same,residual activity,[23],100%
same,residual activity,[24],100%
same,residual activity,[25],100%
same,residual activity,[26],100%
same,inhibition,[27],91.8%
same,residual activity,[28],100%
same,residual activity,[29],100%
same,residual activity,[30],100%
same,residual activity,[31],100%
same,residual activity,[32],96%
same,residual activity,[33],100%
same,residual activity,[34],100%
same,residual activity,[35],100%
same,residual activity,[36],91%
same,residual activity,[37],100%
same,residual activity,[38],100%
same,residual activity,[39],100%
same,residual activity,[40],100%
same,residual activity,[41],100%
same,residual activity,[42],100%
same,residual activity,[43],100%
O=C(O)c1cc(-c2ccc(C3CCNCC3)cc2)c2ccc(-c3ccc(C(F)(F)F)cc3)cc2c1 [PPTN],inhibition,[1],-3.98%
same,residual activity,[2],100%
same,residual activity,[3],82%
same,residual activity,[4],100%
same,residual activity,[5],100%
same,residual activity,[6],100%
same,residual activity,[7],100%
same,residual activity,[8],100%
same,residual activity,[9],100%
same,residual activity,[10],99%
same,residual activity,[11],100%
same,residual activity,[12],100%
same,residual activity,[13],100%
same,residual activity,[14],100%
same,residual activity,[15],100%
same,residual activity,[16],94%
same,residual activity,[17],100%
same,residual activity,[18],95%
same,residual activity,[19],100%
same,inhibition,[20],20.4%
same,residual activity,[21],100%
same,inhibition,[22],4.16%
same,residual activity,[23],95%
same,residual activity,[24],100%
same,residual activity,[25],100%
same,residual activity,[26],100%
same,inhibition,[27],84.9%
same,residual activity,[28],100%
same,residual activity,[29],100%
same,residual activity,[30],100%
same,residual activity,[31],100%
same,residual activity,[32],85%
same,residual activity,[33],100%
same,residual activity,[34],100%
same,residual activity,[35],100%
same,residual activity,[36],85%
same,residual activity,[37],100%
same,residual activity,[38],100%
same,residual activity,[39],100%
same,residual activity,[40],100%
same,residual activity,[41],100%
same,residual activity,[42],100%
same,residual activity,[43],100%
